Source: patent US20210340552A1, “High-Throughput Screening Platform for Longevity Genes and Anti-Aging Drugs” (The Regents of the University of California, priority 2018, published 2021)

System: yeast cells
Test: Replicative lifespan (RLS) measurement with the DAP yeast strain and 96-well microfluidic device
Type: cell-based, Saccharomyces cerevisiae
Procedure: The IDS2GH or IDS2RH transformed yeast cells were cultured in YEPG [For 1 L medium: Bacto yeast extract (Difco 0127-17) (1%) 10 g, Bacto peptone (Difco 0118-17) (2%) 20 g, Galactose (2%) 20 g] at 30° C. for 15 hours, after which time the cells were diluted 1:20 in fresh YEPG and grown for another 3 hours. The cells were centrifuged and washed 3 times with YEP [For 1 L medium: Bacto yeast extract (Difco 0127-17) (1%) 10 g, Bacto peptone (Difco 0118-17) (2%) 20 g]. Finally, the cells were resuspended in an equal volume of YEP, then diluted at a 1:5 ratio in fresh YEP and incubated at 30° C. for another 3 hours; this last step allowed separation of any aggregates of cells.
The water in the wells was discarded, and 100 μl of cells (˜1×10^6 cells/ml) were loaded into inlet wells in columns 1, 4, 7, 10 of the multiwell plate. The plate was then sealed with the 32-channel cover by applying vacuum to the sealing channel, and cell flow started by applying 4 psi air pressure to the loading channel for 10 seconds. Any remaining cells in the wells are discarded, and 300 μl autoclaved ddH2O added to wash the cells, applying 25 psi air pressure to the loading channel for 10 seconds. The remaining water in the wells was again discarded, and 300 μl YEPD [For 1 L medium: Bacto yeast extract (Difco 0127-17) (1%) 10 g, Bacto peptone (Difco 0118-17) (2%) 20 g, Dextrose (2%) 20 g] added, and the cells were washed by applying 2 psi air pressure to the loading channel for 240 seconds. The remaining YEPD in the wells was discarded and 300 μl fresh YEPD added to each well in columns 1, 3, 4, 6, 7, 9, 10, 12. […]
Using the DAP system and the high-throughput microfluidic devices, the lifespan of a number of mutants and the effect of several drugs on lifespan were analyzed. […] The total number of cells in each trapping unit was counted and the fluorescent signal was used to determine the number of DAP mother cells loaded in the trapping unit, allowing the lifespan of the mother cells to be determined unambiguously. […]

## CN(C)C(=N)N=C(N)N [metformin]
Range of concentrations tested from 4 μM to 8 mM, data not shown
  lifespan extension effect: not observed

## CO[C@H]1C[C@@H]2CC[C@@H](C)[C@@](O)(O2)C(=O)C(=O)N2CCCC[C@H]2C(=O)O[C@H]([C@H](C)C[C@@H]2CC[C@@H](O)[C@H](OC)C2)CC(=O)[C@H](C)/C=C(\C)[C@@H](O)[C@@H](OC)C(=O)[C@H](C)C[C@H](C)/C=C/C=C/C=C/1C [rapamycin]
100 nM concentration, three independent experiments, p=2.4×10^−10, FIG. 4A
  lifespan extension: 19%

## NCCCCNCCCN [spermidine]
200 JIM concentration, p=6×10^−6, FIG. 4B
  lifespan extension: 28%
